Laboratory results taken from US8133474B2, “Sensors for fluorescence and magnetic resonance imaging” (Massachusetts Institute of Technology, priority 2006, dated 2012).

How the values were obtained:
[1] = Zinc-dependent MR relaxivity in buffered solutions; type: physicochemical; settings: for zinc-induced change of MR signal in buffered solution: 1 mM Zn^2+, 25 mM Pipes pH 7, T1-weighted 200 μM agent, T2-weighted 500 μM agent with 100 mM KCl; for zinc-induced T2 change at high ionic strength: 100 mM KCl, buffered solution
Description: (§1) MRI samples prepared as described above were arrayed into microtiter plates and placed in a 40-cm-bore Avance 4.7 T MRI scanner (Bruker, Billerica, Mass.). Unused wells were filled with PBS, and imaging was performed on a 2-mm slice through the sample. A spin echo pulse sequence with multiecho acquisition was used. The TR was fixed for every acquisition, and the TE was in defined increments. For example, for TR=100 ms, TE varied from 10 to 80 ms, with a 10-ms increment. To adjust further the weight between T1 and T2, various TRs were applied and the TE increment was changed accordingly, if necessary. Data matrices of 512×128 points were acquired and zero-filled to 256 points in the second (phase encoding) dimension. Images were reconstructed and analyzed by using custom routines running in Matlab (Mathworks, Natick, Mass.).
Insertion of a paramagnetic manganese(III) ion into the porphyrin core of compound 1 rendered the resulting (DPA-C2)2-TPPS3Mn(III) complex (compound 2) an MRI contrast agent. The properties of compound 2 were investigated by using a spin echo pulse sequence to collect images at several echo times (TEs) in parallel. In some experiments, the repetition times (TRs) were varied so that both T1 and T2 could be evaluated. Multiwell plates were used for sample preparation, which allowed several conditions to be investigated in parallel. The well-studied MRI T1 agent, Mn-TPPS4, which contains a similar porphyrin platform as compound 2 but lacks a zinc-binding unit, was chosen as a reference compound.
The zinc-dependent MR relaxivity of compound 2 was first investigated in buffered solutions. Solutions of compound 2 or Mn-TPPS4 in 25 mM Pipes buffer at pH 7.0 were arrayed in microtiter plates. A spin echo pulse sequence was used to acquire an MRI image. […] Addition of 1 mM ZnCl2 to a 200 μM solution of compound 2 dissolved in 25 mM Pipes buffer at pH 7 slowed down the T1 relaxation. […] The T1 values of zinc-free and zinc-saturated solutions were determined at various concentrations of compound 2, from which T1 relaxivity (R1) values could be deduced.
The surrounding wells (not shown) were filled with PBS to maintain a homogenous magnetic field to mark the positions of the samples.
The zinc-induced T2 enhancement depended on the total concentration of compound 2.

[2] = system: intracellular zinc in HEK-293 cells; experiment: Cellular MR imaging of intracellular zinc, T1 and T2 of cell pellets; type: cell-based; settings: for T2 of cell pellet, zinc-treated samples: then 200 μM Zn^2+
Description: as §1
To investigate zinc-induced relaxivity changes in compound 2 inside cells, cell pellets were prepared with and without exogenously introduced zinc, and their MR images were recorded and compared. The HEK-293 cell suspension was divided equally into two flasks after a 24-h treatment with 100 μM of compound 2 or Mn-TPPS4. A 200-μM portion of zinc pyrithione was then added to one of the samples and incubated for an additional 10 min. As in the solution studies, comparisons were made by using Mn-TPPS4 as a reference compound. In addition, an untreated cell sample was prepared as a control. The cell suspensions were pelleted by centrifugation, washed, and transferred into a multiwell plate for MRI analysis. A spin echo pulse sequence was used to acquire MRI images.
T1 and T2 were determined by a series of MR images with varied TR or TE, respectively. The values reported are the average from three separate experiments with standard deviations as indicated by the horizontal bars.

[3] = Absorption spectrum in buffered neutral aqueous solution; type: physicochemical; settings: Soret band centered at 416 nm; 50 mM Hepes/100 mM KCl, pH 7.0
Description: (§2) Millipore water was used to prepare all aqueous solutions. All spectroscopic measurements were performed in buffered solutions containing 50 mM of the buffering species and 100 mM KCl adjusted to the desired pH. A glass electrode (Orion, Boston, Mass.), calibrated before each use, was used to determine solution pH. Solutions of Zn^2+ were prepared from 100 mM stocks of ZnCl2 in water. Absorption spectra were recorded on a 8453A diode array spectrophotometer (Hewlett-Packard, Palo Alto, Calif.) or a Cary 50 Bio UV-visible spectrophotometer (Varian, Palo Alto, Calif.), and fluorescence spectra were obtained with a Quanta Master 4 L-format scanning spectrofluorimeter (Photon Technology International, Lawrenceville, N.J.) equipped with an LPS-220B 75-W xenon lamp and power supply, an A-1010B lamp housing with integrated igniter, a switchable 814 photon-counting/analog photomultiplier detection unit, and a MD-5020 motor driver. Samples for absorption and emission measurements were held in 1×1-cm quartz cuvettes (3.5 mL volume; Stama, Atascadero, Calif.). […] Quantum yields were determined by reference to TPPS4 [0.16 in pH=7 aqueous solution].
The spectroscopic properties of compound 1 were evaluated in buffered neutral aqueous solution (50 mM Hepes/100 mM KCl, pH 7.0). […] Excitation was provided at 418 nm for the emission spectrum, and emission was detected at 648 nm for the excitation spectrum. […]

[4] = Fluorescence metal ion selectivity; settings: 100 μM metal ion, 5 μM compound, 50 mM Hepes/100 mM KCl, pH 7.0, excitation 418 nm
Description: as §2, with “solution]. […]” for “solution].”
Even large excesses of Na^+, K^+, Ca^2+, and Mg^2+, which are biologically relevant, potentially competing, mobile metal ions, barely perturb the fluorescence of the zinc-free and zinc-bound forms of compound 1.

Fluorescence pH profile = type: physicochemical; settings: pH 10.1 to pH 4.5; 5 μM in 100 mM KCl; excitation 416 nm, integrated 550 to 800 nm
Description: The pH-sensitivity of compound 1 was then studied. In some cases, it may be advantageous to reduce fluorescence turn-on by protonation for fluorescent zinc(II) sensors, as protonation can diminish the sensitivity of the sensor to zinc by increasing the background signal intensity. […] The pH values of the solution were adjusted by adding an appropriate volume of HCl or KOH stock solution. The fluorescence spectrum was measured upon excitation at 416 nm, and the fluorescence intensity was integrated from 550 to 800 nm.

all cell lines tested = experiment: Membrane permeability in cell lines; type: cell-based
Description: Suspension cultures of HEK-293 enabled production of a sizeable cell pellet, which was then plated as an adherent monolayer for fluorescence imaging studies. The monolayer cultures were subcultured five times after the initial plating, grown to 70% confluence on glass cover slips and treated with compound 1 for fluorescence imaging. The cytotoxicity of compound 1 was evaluated in these adherent HEK-293 cells by incubating them with 5 μM of compound 1 for 24 h.

[5] = system: intracellular Zn^2+ in HEK-293 cells; experiment: Intracellular zinc imaging by fluorescence microscopy; type: cell-based; settings: 5 μM 24 h, 40 μM Zn^2+/pyrithione 10 min
Description: The cell fluorescence imaging experiments were performed with an Axiovert 200M inverted epifluorescence microscope (Zeiss, Thomwood, N.Y.) equipped with an EM-CCD digital camera C9100 (Hamamatsu Hamamatsu City, Japan) and a MS200 XY Piezo Z stage (Applied Scientific Instruments, Eugene, Oreg.). An X-Cite 120 metal-halide lamp (EXFO, Quebec, Canada) was used as the light source. The fluorescence images were obtained by using a x63 oil immersion objective lenses and a customized optical filter (exciter: D425/50; emitter: E6001p; beamsplitter: 460dcxr; Chroma Technology, Rockingham, Vt.). The microscope was operated with Volocity software (Improvision, Lexington, Mass.).
Fixed cells were investigated by fluorescence imaging using a customized optical filter (exciter: D425/50; emitter: E6001p; beamsplitter: 460dcxr), which was designed to match the excitation and emission profiles of compound 1. The cell nuclei were costained with the blue fluorescent dye Hoechst 33258 (0.4 μM). The HEK-293 cells were incubated with 5 μM of compound 1 for 24 h before fixing. […] The insets show the corresponding bright-field images (Scale bars: 25 μm).

HEK-293 cells [6] = experiment: Cytotoxicity in HEK-293 suspension cells, cell density; type: cell-based; settings: 100 μM, 24 h
HEK-293 cells [7] = experiment: Subcellular localization by manganese atomic absorption spectroscopy of cell fractions; type: cell-based
Description: Cell monolayers were grown in 75-cm plates to 70% confluence and treated with 100 μM of either 2 or Mn-TPPS4, followed by incubation for 24 h. All fractionation steps were performed at 4° C. After twice pelleting by centrifugation (500×g) and washing with PBS, cells were lysed in a low-salt buffer and incubated on ice for 15 min. After centrifugation (420×g, 5 min) the pellet was resuspended in two packed-cell volumes of lysis buffer with 20 strokes of a 27-gauge syringe needle. After centrifugation (11,000×g, 20 min), the supernatant was retained (cytosolic fraction), and the nuclei were lysed in 0.42 M salt with 10 strokes of a 17-gauge syringe needle. After centrifugation (20,000×g, 5 min), the supernatant was obtained as the nuclear fraction.
Manganese atomic absorption spectroscopic analyses of samples were performed on an Aanalyst 300 instrument equipped with an HGA-800 graphite furnace (PerkinElmer, Wellesley, Mass.). Pyrolysis was performed at 1,400° C. for 30 s, and atomization was performed at 2,200° C. for 5 s.
To confirm the membrane permeability and further investigate the subcellular localization of compound 2, the cells were lysed, and nuclear and cytosolic fractions were extracted and analyzed by atomic absorption spectroscopy (AAS).

[8] = HEK-293, 100 μM 24 h, no exogenous zinc
[9] = HEK-293, 100 μM 24 h, then 200 μM zinc pyrithione 10 min

Compound | zinc-induced change of MR signal in buffered solution [1] | zinc-induced T2 change at high ionic strength [1] | T1 of cell pellet, absence of zinc [2, 8] [s] | T2 of cell pellet, non zinc-treated samples [2, 8] [ms] | T2 of cell pellet, zinc-treated samples ([2]; HEK-293, 100 μM 24 h) [ms] | T1 of cell pellet, presence of zinc [2, 9] [s] | extinction coefficient (ε) of Soret band [3] | selectivity of fluorescence turn-on for Zn^2+ over other metal ions [4] | fluorescence increase on acidification (Fluorescence pH profile) | membrane permeability (all cell lines tested) | change of intracellular red fluorescence upon addition of Zn^2+ [5] | cytotoxicity (cell density vs untreated control cells) (HEK-293 cells [6]) | cell membrane permeability (HEK-293 cells [7]; AAS of lysed cell fractions) | Mn in cytosol (AAS) (HEK-293 cells [7]; cells treated with 100 μM, 24 h, cytosolic fraction) [mg Mn/liter] | Mn in nuclear fraction (AAS) (HEK-293 cells [7]; cells treated with 100 μM, 24 h, nuclear fraction) [mg Mn/liter] | T1 of cell pellet, zinc-free sample [2, 8] [ms] | T1 of cell pellet, zinc-containing sample [2, 9] [ms] | cell membrane permeability from relative increase in T1-weighted MR signal ([2]; HEK-293 cells, 100 μM, 24 h, TR=100 ms, TE=10 ms)
O=S(=O)([O-])c1ccc(-c2c3nc(c(-c4ccc(S(=O)(=O)[O-])cc4)c4ccc([n-]4)c(-c4ccc(S(=O)(=O)[O-])cc4)c4ccc([n-]4)c(-c4ccc(S(=O)(=O)[O-])cc4)c4nc2C=C4)C=C3)cc1.[Mn+3] [Mn-TPPS4, reference compound] | almost no change | no zinc-induced T2 change | 1.1 | 107 | 94 | 1.0 |  |  |  |  |  |  |  |  |  |  |  | 
O=S(=O)(O)c1ccc(-c2c3nc(c(-c4ccc(S(=O)(=O)O)cc4)c4ccc([nH]4)c(-c4c(NCCN(Cc5ccccn5)Cc5ccccn5)cccc4NCCN(Cc4ccccn4)Cc4ccccn4)c4nc(c(-c5ccc(S(=O)(=O)O)cc5)c5ccc2[nH]5)C=C4)C=C3)cc1 [compound 1, (DPA-C2)2-TPPS3] |  |  |  |  |  |  | 250,700 M^−1·cm^−1 | selective for Zn^2+ over many other monovalent and divalent metal ions | less than a factor of two | membrane-permeable | significant increase in the red fluorescence intensity |  |  |  |  |  |  | 
(DPA-C2)2-Mn(III)TPPS3 [compound 2] | lowers the MR signal intensity | zinc-induced enhancement of T2 relaxation |  | 69 | 25.0 |  |  |  |  |  |  | little cytoxicity | cell membrane-permeable | 0.78 | 5.62 | 510 | 80 | greater cell membrane permeability than Mn-TPPS4
